This is an account of results in US11370779B2, “Pharmaceutical composition for preventing or treating acute myeloid leukemia or metastatic breast cancer” (PELEMED CO., LTD., priority 2017, dated 2022).

Where two headings read alike, the source gives them in different places.

One data set has as its system MV4;11 xenograft. The data set can be described thus: MV4;11 mouse tumor xenograft, intravenous LDD1937. It is filed as in vivo. On the procedure: The drug or the control PBS was injected daily for a duration of 21 days.
The next data set has as its target FLT3 kinase (Homo sapiens (Human), UniProt P36888). The data set can be described thus: In vitro FLT3 kinase HTRF assay (Example 2). In kind it is biochemical. The note with it: FLT3 vs JAK2, JAK3, cMET, IRAK4. On the procedure:
Inhibition of the FLT3 kinase activity was measured using homogeneous, time-resolved fluorescence (HTRF) assays. Recombinant proteins containing the FLT3 kinase domain were purchased from Carna biosciences (Japan). Optimal enzyme, ATP, and substrate concentrations were established using the HTRF KinEASE kit (Cisbio, France) according to the manufacturer's instructions. The FLT3 enzymes were mixed in sequence with diluted compounds and peptide substrates in a kinase reaction buffer (50 mM HEPES (pH 7.0), 500 μM ATP, 0.1 mM sodium orthovanadate, 5 mM MgCl2, 1 mM DTT, 0.01% bovine serum albumin (BSA), and 0.02% NaN3). After the addition of the reagents for detection, the TR-FRET signal was measured using a Victor multilabel reader (Perkin Elmer, Waltham, Mass., USA). […] JAK2, JAK3, cMET, and RET in vitro kinase assays were also performed using the HTRF assay.

Another data set relates to PC-3 cells. The data set can be described thus: Cytotoxicity assay, PC-3. It is filed as cell-based. The note with it: Homo sapiens, mean ± S.D. On the procedure: MDA-MB-231 (metastatic breast cancer, ATCC HTB-26), Jurkat (human acute T lymphocytic leukemia, ATCC TIB-152), and K-562 (human chronic myelogenous leukemia, ATCC CCL-243) cells were cultured in RPMI-1640 (Sigma Co.). MCF7 (human breast adenocarcinoma, ATCC HTB-22) and PC-3 (human prostate adenocarcinoma, ATCC CRL-1435) cells were cultured in DMEM (Sigma Co.) medium supplemented with 10% fetal bovine serum and 1% penicillin/streptomycin. The cultured cells were incubated at […] with 5% CO2. Cell viability was assessed by a tetrazolium-based assay using the EZ-Cytox Cell Viability Assay kit (DaeilLab, Korea). […] The next day, the cells were treated with compounds together with dimethyl sulfoxide (DMSO) as a negative control. Three days (72 hours) after the drug addition, 15 μl of the EZ-Cytox kit reagent was added to each well of the 96-well plate and then incubated at 37° C. in a humidified CO2 incubator for 4 hours. After incubation, the optical density (OD) was measured at a wavelength of 450 nm using a Victor multilabel reader (Perkin Elmer, Waltham, Mass., USA). The IC50 was calculated by nonlinear regression using Prism version 5.01 (GraphPad, La Jolla, Calif., USA).

Another data set deals with MV4;11 cells. The data set can be described thus: Cell viability, EZ-Cytox tetrazolium assay, MV4;11. In kind it is cell-based, human. On the procedure:
The cultured cells were incubated at 3° C. with 5% CO2.
(§1) Cell viability was assessed by a tetrazolium-based assay using the EZ-Cytox Cell Viability Assay kit (DaeilLab, Korea). Briefly, 2,000 to 15,000 cells were plated in 96-well plates in 100 μl of medium. The next day, the cells were treated with compounds together with dimethyl sulfoxide (DMSO) as a negative control. Three days (72 hours) after the drug addition, 15 μl of the EZ-Cytox kit reagent was added to each well of the 96-well plate and then incubated at 37° C. in a humidified CO2 incubator for 4 hours. After incubation, the optical density (OD) was measured at a wavelength of 450 nm using a Victor multilabel reader (Perkin Elmer, Waltham, Mass., USA).

The target of the next data set is cMET (Homo sapiens (Human), UniProt P08581). Nature of the data set: cMET in vitro kinase HTRF assay. In kind it is biochemical. The following applies: mean ± S.D. On the procedure:
Inhibition of the FLT3 kinase activity was measured using homogeneous, time-resolved fluorescence (HTRF) assays. Recombinant proteins containing the FLT3 kinase domain were purchased from Carna biosciences (Japan). Optimal enzyme, ATP, and substrate concentrations were established using the HTRF KinEASE kit (Cisbio, France) according to the manufacturer's instructions. The FLT3 enzymes were mixed in sequence with diluted compounds and peptide substrates in a kinase reaction buffer (50 mM HEPES (pH 7.0), 500 μM ATP, 0.1 mM sodium orthovanadate, 5 mM MgCl2, 1 mM DTT, 0.01% bovine serum albumin (BSA), and 0.02% NaN3). After the addition of the reagents for detection, the TR-FRET signal was measured using a Victor multilabel reader (Perkin Elmer, Waltham, Mass., USA). The IC50 was calculated by nonlinear regression using Prism version 5.01 (GraphPad). JAK2, JAK3, cMET, and RET in vitro kinase assays were also performed using the HTRF assay.
A general note: TR-FRET usually uses a lanthanide donor and a delayed reading to cut background.

A further data set concerns A549 (lung cancer). Nature of the data set: WST anti-proliferative assay, A549. In kind it is cell-based. The note with it: Homo sapiens, A549, read-out: % inhibition at 1 μM, A549. On the procedure: (§2) (Table 6) Compound 33 (LDD-2635) was tested at 8 concentrations to measure their anti-proliferative effects on various human cancer cell lines using WST assay. The GI50 values were obtained in triplicate and the error bars represent the standard error of the mean.

A further data set deals with MV4-11 xenograft. The data set can be described thus: MV4-11 mouse tumor xenograft, oral administration.
A further data set relates to SK-OV-3 (ovarian cancer). The data set can be described thus: WST anti-proliferative assay, SK-OV-3. It is filed as cell-based. The note with it: Homo sapiens, SK-OV-3, read-out: % inhibition at 1 μM, SK-OV-3. The procedure:
as §2

The subject of a further data set is PC3 (prostate cancer). The data set can be described thus: WST anti-proliferative assay, PC3. The following applies: Homo sapiens, read-out: % inhibition at 1 μM, PC3. It is filed as cell-based. On the procedure: as §2
In another data set the test system is HCT-116 (colon cancer). Nature of the data set: WST anti-proliferative assay, HCT-116. In kind it is cell-based. The note with it: Homo sapiens, HCT-116, read-out: % inhibition at 1 μM, HCT-116. On the procedure: as §2
The next data set relates to MDA-MB-231 xenograft. The data set can be described thus: MDA-MB-231 mouse tumor xenograft. In kind it is in vivo. The following applies: 20 mg/kg/p.o/day, 4 weeks. On the procedure: 6-weeks-old Balb/c nu/nu mice (female) were purchased from Central Lab. Animal Inc. to be used. […] The candidate substances LDD-2614 (Compound 21), 2633 (Compound 28), 2634 (Compound 34), 2635 (Compound 33) were administered at 20 mg/kg/p.o/day, and doxorubicin, which was a control, was administered at 5 mg/kg/i.p (once a week) for 4 weeks.

The test system of the next data set is MDA-MB-231. Nature of the data set: Cell viability, EZ-Cytox tetrazolium assay, MDA-MB-231. It is filed as cell-based, human. The note with it: Homo sapiens, MDA-MB-231; 72 hours. The procedure: MDA-MB-231 (metastatic breast cancer, ATCC HTB-26), Jurkat (human acute T lymphocytic leukemia, ATCC TIB-152), and K-562 (human chronic myelogenous leukemia, ATCC CCL-243) cells were cultured in RPMI-1640 (Sigma Co.). MCF7 (human breast adenocarcinoma, ATCC HTB-22) and PC-3 (human prostate adenocarcinoma, ATCC CRL-1435) cells were cultured in DMEM (Sigma Co.) medium supplemented with 10% fetal bovine serum and 1% penicillin/streptomycin. The cultured cells were incubated at 3° C. with 5% CO2.
as §1, with “USA). The IC50 was calculated by nonlinear regression using Prism version 5.01 (GraphPad, La Jolla, Calif., USA).” for “USA).”

Another data set concerns MV4-11 cells. Nature of the data set: Cytotoxicity WST assay, MV4-11 (Example 3). It is filed as cell-based, human. The following applies: for GI50: Homo sapiens, MV4-11, WST assay. On the procedure: Test 96-well plates were incubated at 37° C. with 5% CO2 for 72 h. After 72 h incubation, 10 μL of the EZ-Cytox kit reagent from EZ-cytox Cell viability assay kit (DaeilLab, Korea) were added to each well of the 96-well plate and then incubated at 37° C. with 5% CO2 for 3 h. […] The IC50 values were calculated with nonlinear regression analysis using OriginPro 9.1 software (OriginLab, Northampton, Mass.). […] The GI50 values were obtained in triplicate and the error bars represent the standard error of the mean.

For the next data set, the system named is HepG2 (liver cancer). Nature of the data set: WST anti-proliferative assay, HepG2. In kind it is cell-based. The note with it: Homo sapiens. On the procedure:
as §2

The subject of a further data set is MOLM14 Wild type. Nature of the data set: Cell proliferation MTT assay, MOLM14 wild type. It is filed as cell-based. The note with it: Homo sapiens, MOLM-14. (In general: Tetrazolium assays rely on reduction of a dye to a coloured formazan, in cell work by metabolically active cells.)
Data set [1] concerns MOLM14 FLT3-ITD (MOLM14-ITD). The data set can be described thus: Cell proliferation MTT assay, MOLM14-ITD. It is filed as cell-based. The following applies: Homo sapiens, MOLM-14.
Description: (§3) MOLM14 were purchased from the ATCC and the cells were maintained in RPMI medium (Hyclone) with 10% Fetal bovine serum (Gibco) and 1% penicillin/streptomycin.
Viral particles were infected to MOLM14 cells and 48 h after infection, infected cells were selected with puromycin (1 μg/mL).
The test system of another data set is MOLM14 FLT3-ITD-D835Y. The data set can be described thus: Cell proliferation MTT assay, MOLM14-ITD-D835Y. In kind it is cell-based, human. The note with it: Homo sapiens, MOLM-14.
[2] abbreviates: Homo sapiens, MV4-11, 72 hours, read-out: GI50(nM) MV4;11.

cMET, sequence (P08581 25-1390): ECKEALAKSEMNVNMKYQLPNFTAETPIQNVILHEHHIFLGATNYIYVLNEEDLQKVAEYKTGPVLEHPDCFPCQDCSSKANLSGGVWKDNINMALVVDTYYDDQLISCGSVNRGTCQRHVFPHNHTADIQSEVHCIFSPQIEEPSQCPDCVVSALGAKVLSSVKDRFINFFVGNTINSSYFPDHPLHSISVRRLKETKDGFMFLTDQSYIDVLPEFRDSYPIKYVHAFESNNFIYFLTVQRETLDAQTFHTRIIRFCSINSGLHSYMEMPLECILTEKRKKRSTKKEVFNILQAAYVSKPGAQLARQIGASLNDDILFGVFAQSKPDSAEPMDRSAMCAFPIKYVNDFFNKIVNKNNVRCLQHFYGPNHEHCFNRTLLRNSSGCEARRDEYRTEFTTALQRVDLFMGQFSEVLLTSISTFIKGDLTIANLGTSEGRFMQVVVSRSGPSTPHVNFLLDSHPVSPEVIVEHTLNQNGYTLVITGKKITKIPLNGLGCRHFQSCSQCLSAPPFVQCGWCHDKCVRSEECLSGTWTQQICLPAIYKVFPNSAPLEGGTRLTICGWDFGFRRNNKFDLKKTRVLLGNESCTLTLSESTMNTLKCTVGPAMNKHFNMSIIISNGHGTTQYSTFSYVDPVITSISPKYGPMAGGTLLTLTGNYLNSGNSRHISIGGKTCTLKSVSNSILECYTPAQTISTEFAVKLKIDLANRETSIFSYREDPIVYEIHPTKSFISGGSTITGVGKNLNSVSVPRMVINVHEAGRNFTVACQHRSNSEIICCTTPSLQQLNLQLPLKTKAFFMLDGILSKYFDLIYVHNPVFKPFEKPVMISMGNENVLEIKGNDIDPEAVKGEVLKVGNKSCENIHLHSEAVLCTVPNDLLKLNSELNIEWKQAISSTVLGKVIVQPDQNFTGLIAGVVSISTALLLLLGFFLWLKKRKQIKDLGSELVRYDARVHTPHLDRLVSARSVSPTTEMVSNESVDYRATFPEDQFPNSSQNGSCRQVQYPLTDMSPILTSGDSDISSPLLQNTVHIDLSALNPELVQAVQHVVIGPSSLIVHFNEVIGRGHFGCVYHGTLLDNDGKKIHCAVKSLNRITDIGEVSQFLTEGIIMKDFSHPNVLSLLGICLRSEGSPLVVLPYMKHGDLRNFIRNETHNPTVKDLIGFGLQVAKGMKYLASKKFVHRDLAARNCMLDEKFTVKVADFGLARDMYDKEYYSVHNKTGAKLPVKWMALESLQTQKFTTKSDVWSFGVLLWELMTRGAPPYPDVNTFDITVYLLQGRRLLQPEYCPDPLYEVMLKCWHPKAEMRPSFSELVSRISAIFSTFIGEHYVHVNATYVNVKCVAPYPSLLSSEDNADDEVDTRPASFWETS
FLT3 kinase, sequence (P36888 610-943): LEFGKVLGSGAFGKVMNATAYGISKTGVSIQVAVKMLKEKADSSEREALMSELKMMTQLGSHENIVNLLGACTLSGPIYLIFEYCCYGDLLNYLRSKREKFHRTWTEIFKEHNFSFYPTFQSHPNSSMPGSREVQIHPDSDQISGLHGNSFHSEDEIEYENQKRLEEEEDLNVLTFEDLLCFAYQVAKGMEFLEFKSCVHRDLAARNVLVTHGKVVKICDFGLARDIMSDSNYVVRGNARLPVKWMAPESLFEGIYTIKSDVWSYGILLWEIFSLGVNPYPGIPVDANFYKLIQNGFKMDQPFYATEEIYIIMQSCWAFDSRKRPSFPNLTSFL
Description for MOLM14 FLT3-ITD-D835Y: as §3
Mutagenesis is performed in FLT3-ITD MSCV plasmid using Q5 site-directed mutagenesis kit (E05545). […] Retroviral particles were produced by transiently transfecting HEK293T cells with Retroviral vectors together with packaging vectors, GPE and VSVG. 48 h after transfection, media containing viral particles were collected and filtered for infection. Viral particles were infected to MOLM14 cells and 48 h after infection, infected cells were selected with puromycin (1 μg/mL).
Excerpt for MOLM14 Wild type: as §3
Description for MV4-11 xenograft: The drug or the control PBS was administered daily for a duration of 21 days. Tumor sizes were measured twice a week for 21 days, and the tumor volumes were calculated with the following formula: V (volume)=X (length)×D (width)2/2. After 21 days, the mice were sacrificed, and the tumor weights were measured.
An in vivo MV4-11 xenograft study was performed to determine the efficacy of the indirubin derivatives. MV4-11 cells were subcutaneously injected into BALB/c nu/nu mice, and tumors were allowed to grow to a size of approximately 100 mm^3.

One may read the GI50 as the concentration giving 50% growth inhibition. As usually defined, the IC50 is the point on the concentration scale where inhibition reaches its midpoint. Low readings indicate inhibition by little substance, high ones a need for much substance. Turning to `COC(=O)c1ccc2c(c1)/C(=C1/Nc3ccccc3/C1=N\OCCN1CCNCC1)C(=O)N2.Cl.Cl` [Compound 4, Methyl (2Z,3E)-2′-oxo-3-((2-(piperazin-1-yl)ethoxy)imino)-[2,3′-biindolinylidene]-5′-carboxylate dihydrochloride], the “day from which the tumor disappeared” value in the data set on MV4;11 xenograft (10 mg/kg i.v. daily, based on measured tumor volume) came out at 3 days. Further, the “body weight during the administration period” value in the data set with MV4;11 xenograft (5 or 10 mg/kg i.v., 21 days, between groups) was “no significant difference in body weight”. Also, the “difference in the IC50 between FLT3 and other kinases” value on FLT3 kinase is not below 170 fold. Moreover, the GI50 in the data set with PC-3 cells worked out at 1.1 ± 0.14 µM; with MV4;11 cells (setting [2]) it was 1 nM; with MV4;11 cells (Homo sapiens, MV4-11, Table 4, mean ± S.D., read-out: GI50 (μM) MV-4-11), 1.2 ± 0.15 nM. Also, the “increase of activity against MV4;11 compared to Compound 1” value with MV4;11 cells amounted to 40 fold. For the same compound, the IC50 stood at 1 nM in the data set with MV4;11 cells (Homo sapiens, MV4-11, Table 1, 72 hours) and 0.25 ± 0.074 µM on cMET.

A word on the inhibition: it is the share of the control response that was lost under treatment. As for `Cl.Cl.O=C1Nc2ccc(F)cc2/C1=C1/Nc2ccccc2/C1=N\OCCN1CCNCC1` [Compound 33, (2Z,3E)-5′-fluoro-3-((2-(piperazin-1-yl)ethoxy)imino)-[2,3′-biindolinylidene]-2′-one dihydrochloride], the inhibition at 1 µM with A549 (lung cancer) came to 2.05%; in the data set on SK-OV-3 (ovarian cancer) it was 16%; with PC3 (prostate cancer), 40.7%; with HCT-116 (colon cancer), 38.5%. In addition, the “weight loss or other signs of toxicity during the administration period” value in the data set with MV4-11 xenograft (20 mg/kg oral once daily for 21 days) is “no weight loss or any other signs of toxicity”. Also, the “day by which the tumor disappeared” value with MV4-11 xenograft (20 mg/kg oral once daily, based on measured tumor volume) is not above 14 days. Moreover, the “weights of the liver and the kidney” value in the data set on MDA-MB-231 xenograft is “no significant difference”. Moreover, the concentration for 50% growth inhibition (GI50) in the data set on MDA-MB-231 was 117 nM; with MV4-11 cells (Table 6, read-out: GI50 value (μM) MV4-11) it was 0.001 ± 0.0003 µM; in the data set with MV4-11 cells (read-out: GI50 MV4-11 cells), 0.001 µM; in the data set on HepG2 (liver cancer), 1.1 ± 0.2 µM; with MOLM14 Wild type, 4.88 nM; in data set [1], 1.85 nM. Also, the GI50 in the data set on MOLM14 FLT3-ITD-D835Y was 1.87 nM; in the data set with MV4;11 cells (setting [2]) it was 1 nM. Also, in the data set with MV4-11 cells, the “times more sensitive against MV4-11 cells than K562 cell line” value is recorded as 430 times.
